Measurements reported in US12447191B2, “Topical application of polypeptide in the treatment of skin damage” (WUHAN YICHENG BIOTECHNOLOGY CO., LTD., priority 2020, dated 2025).
No end group written: not given here.

Experiments:
[1] = tested on: deep II degree burn (scald wound); experiment: Animal Experiment 1: rat scald (deep II degree burn) model; type: in vivo, SD rats; conditions: after 14 days of treatment; smeared twice a day on scald wound; other side untreated control
Procedure: The following will verify the therapeutic function of the medicament prepared in embodiments 1 to 3 on trauma and burns through experiments. The pharmacodynamic effects of polypeptide drugs were evaluated by establishing a rat burn model or a rat trauma model. Experimental Purpose: to study the therapeutic effect of polypeptide drug of the invention on scald. Experimental Animals: SD rats, half male and half female, 200 g±10 g. The Modeling Scheme: the rats' back were depilated with 10% barium sulfide the day before the experiment, and anesthetized by intraperitoneal injection before scalding. The rat models were made with a constant temperature and pressure scald apparatus. After scalding, 5 ml lactate Ringer's solution was intraperitoneally injected immediately to prevent shock. The criteria for successful modeling: disappearance of local epidermis; expansion of blood vessels in epidermis, dermis and subcutaneous tissue; edema of subcutaneous tissue; infiltration of acute and chronic inflammatory cells in dermis and subcutaneous tissue; the above description is a deep II degree burn. Animal Grouping: 8 SD rats in total Ointment Group (Ointment prepared in embodiment 2): 4 rats, half male and half female, scalded on both sides of the body. After scalding, one side was administered, and the other side was used as control. […]

[2] = tested on: HaCAT cells; experiment: Cell Differentiation Experiment; type: cell-based, human; conditions: 10 μL polypeptide (10 mg/ml), 48 h
Procedure: 1. Cell Resuscitation: • (1) HaCAT cells (human immortalized epidermal cells, purchased from Wuhan University Cell Preservation Center, GDC106) are taken out of liquid nitrogen, quickly put into a 37° C. water bath, and gently shake the cryopreservation tube to dissolve the cryopreservation solution;
(2) After dissolution, the HaCAT cells were transferred to a centrifuge tube containing 5 ml of culture medium. The cells were collected by centrifugation, centrifuged at 1000 rmp at room temperature for 5 min, and the supernatant was discarded;
(3) The HaCAT cells were suspended in a complete medium containing 10% fetal bovine serum, inoculated into a culture dish, gently blown and mixed, and cultured at 37° C. and 5% CO2 saturated humidity.
When the cell density reaches 80%, the HaCAT cells will be subcultured:
(1) Discard the culture medium and wash it once with PBS;
(2) Add 1-2 ml 0.25% trypsin to digest the cells. Observe under the microscope. Digest for 1-2 min. It can be seen that the cells are separated from each other and become round, that is, the digestion is completed;
(3) Quickly discard the trypsin, add the complete culture medium, blow the cells to make a single cell suspension, pass the passage in a ratio of 1:3, and expand the culture under 37° C. and 5% CO2 saturated humidity. […]

MPYSTELIFYIEMDP [polypeptide]
Photo observation of wound healing [1]: can obviously promote the wound healing | Differentiation of HaCAT cells (morphology on photos) [2]: some cells are differentiated
